Data published in patent US20250326708A1, “LONG-ACTING SPLEEN-TARGETING CATIONIC LIPID COMPOUND COMPRISING BENZENE RING STRUCTURE, COMPOSITION COMPRISING SAME, AND USE THEREOF” (Beijing Youcarekechuang Pharmaceutical Technology Co., Ltd., priority 2024, published 2025).
Values joined by “and” are separate entries in the source; they are usually repeats but may differ in a detail not shown here. Equal entries are not always repeated.

What was measured:
female BALB/C mice [1] = experiment: Expression of delivered mRNA in different organs of mice (organ imaging); format: in vivo; conditions: for Average radiation intensity of mouse organs: Heart / Average radiation intensity of mouse organs: Kidney / Average radiation intensity of mouse organs: Liver / Average radiation intensity of mouse organs: Lung / Average radiation intensity of mouse organs: Lymph / Average radiation intensity of mouse organs: Spleen: 6 hours after 5 μg Fluc-mRNA subcutaneously; for Expression level of mRNA in the spleen, times that of SM-102 / Expression level of mRNA in the spleen, times that of YK-501 / Expression level of mRNA in the spleen, times that of YK-506: 6 h; for Expression level of mRNA in the spleen, times that of SM-102: vs SM-102; for Expression level of mRNA in the spleen, times that of YK-501: vs YK-501; for Expression level of mRNA in the spleen, times that of YK-506: vs YK-506
Procedure: LNP preparations containing 5 μg of Fluc-mRNA were subcutaneously injected into female BALB/C mice (4 to 6 weeks old, weighing 17 to 19 g). At specified time points after administration (6 h), the mice were intraperitoneally injected with fluorescent imaging substrates and allowed to move freely for 5 minutes. The average radiation intensity (corresponding to fluorescence intensity) of proteins expressed by the mRNA delivered by the LNP preparations in the mice in vivo was then detected using the IVIS Spectrum small-animal in vivo imaging system. After sampling, the mice were killed by cervical dislocation and dissected, and the internal organs: heart, liver, spleen, lung, kidney, and lymph of mice were accurately isolated. The average radiation intensity (corresponding to fluorescence intensity) of proteins expressed by the mRNA delivered by the LNP preparations in various organs of mice was then detected using the IVIS Spectrum small-animal in vivo imaging system.

293T cells [2] = experiment: Fluorescence detection of Fluc-mRNA (transfection efficiency) of LNP preparations; format: cell-based; conditions: Fluc-mRNA LNP; for Cellular transfection efficiency, times that of HHMA: vs HHMA; for Cellular transfection efficiency, times that of I-1: vs I-1; for Cellular transfection efficiency, times that of Lipofectamine 3000: vs Lipofectamine 3000; for Cellular transfection efficiency, times that of MC3: vs MC3; for Cellular transfection efficiency, times that of SM-102: vs SM-102; for Cellular transfection efficiency, times that of YK-501: vs YK-501; for Cellular transfection efficiency, times that of YK-506: vs YK-506; for Cellular transfection efficiency, times that of compound 7: vs compound 7
Procedure: (§1) Cell recovery and passage: 293T cells were recovered and cultured in culture dishes. The cells were passaged until the required number of cells was obtained.
(§2) Seeding plates: The cells in culture dishes were digested and counted, then seeded in a 96-well plate at 10,000 cells per well and seeded in a 12-well plate at 150,000 cells per well. The cells were cultured overnight until cell adhesion.
(§3) The cationic lipids listed in Table 2 were each mixed with DSPC (AVT (Shanghai) Pharmaceutical Technology Co., Ltd.), cholesterol (AVT (Shanghai) Pharmaceutical Technology Co., Ltd.), and DMG-PEG2000 in a molar ratio of 49:10:39.5:1.5 and dissolved in ethanol to prepare ethanol lipid solutions. Using the ethanol injection method, the ethanol lipid solutions were quickly added to a citrate buffer (pH between 4 and 5), and vortexed for 30 seconds for later use. eGFP-mRNA (purchased from Shanghai BioHub Biotechnology Co., Ltd.), Fluc-mRNA (purchased from Shanghai BioHub Biotechnology Co., Ltd.), or Cy5 fluorescently labeled Leqvio (purchased from Sangon Biotech (Shanghai) Co., Ltd.) was diluted in a citrate buffer (pH between 4 and 5) to obtain an mRNA aqueous solution. A certain volume of the lipid solution and the mRNA aqueous solution were mixed to prepare liposomes at a total lipid-to-mRNA weight ratio of 15:1. The mixtures were sonicated at 25° C. for 15 minutes (ultrasonic frequency: 40 kHz, ultrasonic power: 800 W). The resulting liposomes were diluted 10-fold with PBS, followed by ultrafiltration using a 300 kDa ultrafiltration tube to remove ethanol. After adjusting the volume with PBS, LNP preparations encapsulating eGFP-mRNA or Fluc-mRNA were obtained, using cationic lipids, DSPC, cholesterol, and DMG-PEG2000 at a molar ratio of 49:10:39.5:1.5.
(§4) Cell recovery and passage: The method was the same as described in Example 3.
(§5) Seeding plates: The method was the same as described in Example 3.
LNP preparations containing 0.3 μg of Fluc-mRNA (with the vector components of the LNP preparations of cationic lipids, DSPC, cholesterol, and DMG-PEG2000 in a molar ratio of 49:10:39.5:1.5, where the cationic lipids are those listed in Table 1) were added to the cell culture medium in a 96-well plate. After 24 hours of continued culture, the corresponding reagents were added according to the instructions in the Gaussia Luciferase Assay Kit. Fluorescence intensity in each well was detected using the IVIS fluorescence detection system. The transfection efficiency of LNP preparations prepared with a series of cationic lipid compounds designed in the present disclosure, as well as cationic lipids from the prior art, including SM-102, HHMA, MC3, compound 7, and I-1, is shown in Table 4.

293T cells [3] = experiment: Cell viability assay (CCK-8) with LNP preparations of Fluc-mRNA; format: cell-based; conditions: for Cell viability: LNP with 1.5 μg Fluc-mRNA, 24 hours, CCK-8
Procedure: as §1, §2, §3, §4, §5
LNP preparations containing 1.5 μg of Fluc-mRNA (with the vector components of the LNP preparations of cationic lipids, DSPC, cholesterol, and DMG-PEG2000 in a molar ratio of 49:10:39.5:1.5, where the cationic lipids are those listed in Table 1) were added to the cell culture medium in a 96-well plate. After 24 hours of continued culture, 10 μL of CCK-8 solution was added to each well, and the culture plate was incubated in an incubator for 1 hour.

female BALB/C mice [4] = experiment: Expression of delivered mRNA in mice in vivo (IVIS in vivo imaging); conditions: 10 μg Fluc-mRNA via tail vein
Procedure: LNP preparations containing 10 μg of Fluc-mRNA were injected via the tail vein into female BALB/C mice (4 to 6 weeks old, weighing 17 to 19 g). At specified time points after administration (6 h, 24 h, 48 h, and 7 d), the mice were intraperitoneally injected with fluorescent imaging substrates and allowed to move freely for 5 minutes. The average radiation intensity (corresponding to fluorescence intensity) of proteins expressed by the mRNA delivered by the LNP preparations in the mice in vivo was then detected using the IVIS Spectrum small-animal in vivo imaging system.

[5] = Particle size and polydispersity index (PDI) of lipid nanoparticles, dynamic light scattering; format: physicochemical; conditions: LNP preparation with the named cationic lipid; 90° scattering angle, 25° C
Description: as §3
The particle size and polydispersity index (PDI) were measured using dynamic light scattering with a Malvern laser diffraction particle size analyzer.
10 μL of liposome solution was diluted to 1 mL with RNase-free deionized water and added to the sample cell. Each sample was measured three times. The measurement conditions were as follows: 90° scattering angle, 25° C.

With CCCCCCCCc1ccc(CCC(CO)(CO)NCCCCCCNC(=O)C(CCCCCC)CCCCCCCC)cc1 (stereo not shown) [YK-908, 2-hexyl-N-(6-((1-hydroxy-2-(hydroxymethyl)-4-(4-octylphenyl)butan-2-yl)amino)hexyl) decanamide] the “Average radiation intensity of mouse organs: Heart” value (female BALB/C mice [1]) was 0, the “Average radiation intensity of mouse organs: Kidney” value (female BALB/C mice [1]) was 0 and the “Average radiation intensity of mouse organs: Liver” value (female BALB/C mice [1]) was 1423. For the same molecule, the “Average radiation intensity of mouse organs: Lung” value (female BALB/C mice [1]) was 0, the “Average radiation intensity of mouse organs: Lymph” value (female BALB/C mice [1]) was 0 and the “Average radiation intensity of mouse organs: Spleen” value (female BALB/C mice [1]) was 168302. The “Expression level of mRNA in the spleen, times that of SM-102” value (female BALB/C mice [1]) was 6.59 times, the “Expression level of mRNA in the spleen, times that of YK-501” value (female BALB/C mice [1]) was 11.83 times and the “Expression level of mRNA in the spleen, times that of YK-506” value (female BALB/C mice [1]) was 2.36 times. The “Cellular transfection efficiency, times that of HHMA” value (293T cells [2]) was 5.01 times, the “Cellular transfection efficiency, times that of I-1” value (293T cells [2]) was 25.01 times and the “Cellular transfection efficiency, times that of Lipofectamine 3000” value (293T cells [2]) was 6.02 times. For the same molecule, the “Cellular transfection efficiency, times that of MC3” value (293T cells [2]) was 53.42 times, the “Cellular transfection efficiency, times that of SM-102” value (293T cells [2]) was 3.55 times and the “Cellular transfection efficiency, times that of YK-501” value (293T cells [2]) was 109.64 times. The “Cellular transfection efficiency, times that of YK-506” value (293T cells [2]) was 7.75 times, the “Cellular transfection efficiency, times that of YK-907” value (293T cells [2]; vs YK-907) was 134 times and 134.49 times and the “Cellular transfection efficiency, times that of compound 7” value (293T cells [2]) was 19.69 times. For the same molecule, the Cell viability (293T cells [3]) was 89%, the “Cell viability higher than that of YK-907” value (293T cells [3]; difference vs YK-907) was 16% and the “Average radiation intensity, in vivo imaging” value (female BALB/C mice [4]; 6 h) was 8918424. The “Average radiation intensity, in vivo imaging” value (female BALB/C mice [4]; 24 h) was 1176543, the “Average radiation intensity, in vivo imaging” value (female BALB/C mice [4]; 48 h) was 344643 and the “Average radiation intensity, in vivo imaging” value (female BALB/C mice [4]; 7 d) was 64325. It also gave a PDI [5] of 12.2% and a Particle size [5] of 121 nm.

For CCCCCCCCCCOC(=O)CCCN(CCCCCC(=O)OCCC(CCCCCC)CCCCCC)CCNC(CO)(CO)CCc1ccc(CCCCCCCC)cc1 [YK-909, 3-hexylnonyl 6-((4-(decyloxy)-4-oxobutyl) (2-((1-hydroxy-2-(hydroxymethyl)-4-(4-octylphenyl)butan-2-yl)amino)ethyl)amino) hexanoate], the “Average radiation intensity of mouse organs: Heart” value (female BALB/C mice [1]) was 0, the “Average radiation intensity of mouse organs: Kidney” value (female BALB/C mice [1]) was 0 and the “Average radiation intensity of mouse organs: Liver” value (female BALB/C mice [1]) was 9131. The “Average radiation intensity of mouse organs: Lung” value (female BALB/C mice [1]) was 0, the “Average radiation intensity of mouse organs: Lymph” value (female BALB/C mice [1]) was 0 and the “Average radiation intensity of mouse organs: Spleen” value (female BALB/C mice [1]) was 204435. The “Expression level of mRNA in the spleen, times that of SM-102” value (female BALB/C mice [1]) was 8.00 times, the “Expression level of mRNA in the spleen, times that of YK-501” value (female BALB/C mice [1]) was 14.37 times and the “Expression level of mRNA in the spleen, times that of YK-506” value (female BALB/C mice [1]) was 2.87 times. For the same molecule, the “Cellular transfection efficiency, times that of HHMA” value (293T cells [2]) was 6.71 times, the “Cellular transfection efficiency, times that of I-1” value (293T cells [2]) was 33.44 times and the “Cellular transfection efficiency, times that of Lipofectamine 3000” value (293T cells [2]) was 8.05 times. The “Cellular transfection efficiency, times that of MC3” value (293T cells [2]) was 71.44 times, the “Cellular transfection efficiency, times that of SM-102” value (293T cells [2]) was 4.75 times and the “Cellular transfection efficiency, times that of YK-501” value (293T cells [2]) was 146.62 times. For the same molecule, the “Cellular transfection efficiency, times that of YK-506” value (293T cells [2]) was 10.36 times, the “Cellular transfection efficiency, times that of YK-906” value (293T cells [2]; vs YK-906) was 246 times and 246.15 times and the “Cellular transfection efficiency, times that of compound 7” value (293T cells [2]) was 26.33 times. For the same molecule, the Cell viability (293T cells [3]) was 92%, the “Cell viability higher than that of YK-906” value (293T cells [3]; difference vs YK-906) was 29% and the “Average radiation intensity, in vivo imaging” value (female BALB/C mice [4]; 6 h) was 12924543. The “Average radiation intensity, in vivo imaging” value (female BALB/C mice [4]; 24 h) was 1322432, the “Average radiation intensity, in vivo imaging” value (female BALB/C mice [4]; 48 h) was 576433 and the “Average radiation intensity, in vivo imaging” value (female BALB/C mice [4]; 7 d) was 87433. For the same molecule, the PDI [5] was 11.9% and the Particle size [5] was 132 nm.
